Measured values published in patent US10273237B2, “Imidazopyridazine compounds useful as modulators of IL-12, IL-23 and/or IFN-α responses” (BRISTOL-MYERS SQUIBB COMPANY, priority 2013, dated 2019).
Read-outs that look alike come from different tables or passages of the source.

Tests used:
[1] = system: IL-23-stimulated Kit225 T cells with STAT-dependent luciferase reporter; experiment: Kit225 T cell assay, STAT-dependent luciferase reporter, IL-23 stimulated; type: cell-based, human; settings: read-out: IL-23 Kit225 Reporter, LE (IC50)
Description: (§1) Kit225 T cells with a stably-integrated STAT-dependent luciferase reporter were plated in RPMI (GIBCO) containing 10% heat-inactivated FBS (GIBCO) and 100 U/mL PenStrep (GIBCO). The cells were then stimulated with either 20 ng/mL human recombinant IL-23 or 200 U/mL human recombinant IFNα (PBL InterferonSource) for 5-6 hours. Luciferase expression was measured using the STEADY-GLO® Luciferase Assay System (PROMEGA®) according to the manufacturer's instructions.

[2] = system: IFNα-stimulated Kit225 T cells with STAT-dependent luciferase reporter; experiment: Kit225 T cell assay, STAT-dependent luciferase reporter, IFNα stimulated; type: cell-based, human; settings: 5-6 hours, read-out: IFNa Kit225 Reporter, LE (IC50)
Description: as §1

[3] = 20 ng/mL human recombinant IL-23, 5-6 hours
[4] = 200 U/mL human recombinant IFNα
[5] = Homo sapiens, KIT225, 20 ng/mL human recombinant IL-23, 5-6 hours
[6] = Homo sapiens, KIT225, 200 U/mL human recombinant IFNα

IC50 [1, 3] [nM] | IC50 [2, 4] [nM] | IC50 [1, 5] [nM] | IC50 [2, 6] [nM] | Structure (SMILES)
220 | 160 | – | – | CNc1cc(Nc2cncn(-c3cccc(C(C)O)n3)c2=O)nn2c(C(=O)NC3CCC3)cnc12 (racemic) [Example 87]
460 | 440 | – | – | CCC(C)NC(=O)c1cnc2c(NC)cc(Nc3cccn(C)c3=O)nn12 (single isomer, unassigned) [Example 72]
190 | 120 | – | – | CCC(C)NC(=O)c1cnc2c(NC)cc(Nc3cccn(C)c3=O)nn12 (single isomer, unassigned) [Example 73]
190 | 130 | – | – | CCC(C)NC(=O)c1cnc2c(NC)cc(Nc3cccn(-c4ccc(C)nn4)c3=O)nn12 (single isomer, unassigned) [Example 75]
410 | 560 | – | – | CCC(C)NC(=O)c1cnc2c(NC)cc(Nc3cncn(-c4ccccn4)c3=O)nn12 (single isomer, unassigned) [Example 76]
– | – | 480 | 310 | CNc1cc(Nc2cccn(C)c2=O)nn2c(C(=O)NC3(C#N)CC3)cnc12 [Example 1, N-(1-Cyanocyclopropyl)-6-(1-methyl-2-oxo-1,2-dihydropyridin-3-ylamino)-8-(methylamino)imidazo[1,2-b]pyridazine-3-carboxamide]
– | – | 160 | 90 | CNc1cc(Nc2cccn(-c3ccc(C#N)cc3)c2=O)nn2c(C(=O)NC3CC3)cnc12 [Example 2, 6-((1-(4-Cyanophenyl)-2-oxo-1,2-dihydropyridin-3-yl)amino)-N-cyclopropyl-8-(methylamino)imidazo[1,2-b]pyridazine-3-carboxamide]
– | – | 520 | 320 | CNc1cc(Nc2cccn(-c3ccccc3)c2=O)nn2c(C(=O)NC(CO)CCl)cnc12 (stereo not shown) [Example 4, N-(1-Chloro-3-hydroxypropan-2-yl)-8-(methylamino)-6-(2-oxo-1-phenyl-1,2-dihydropyridin-3-ylamino)imidazo[1,2-b]pyridazine-3-carboxamide]
– | – | 150 | 150 | CNc1cc(Nc2cccn(-c3nccc(C(F)(F)F)n3)c2=O)nn2c(C(=O)NC3CCC3)cnc12 [Example 5, N-Cyclobutyl-8-(methylamino)-6-((2-oxo-1-(4-(trifluoromethyl)pyrimidin-2-yl)-1,2-dihydropyridin-3-yl)amino)imidazo[1,2-b]pyridazine-3-carboxamide]
– | – | 270 | 300 | CNc1cc(Nc2cccn(-c3ccccc3)c2=O)nn2c(C(=O)N[C@@H]3CCOC3)cnc12 [Example 7, (R)-8-(Methylamino)-6-((2-oxo-1-phenyl-1,2-dihydropyridin-3-yl)amino)-N-(tetrahydrofuran-3-yl)imidazo[1,2-b]pyridazine-3-carboxamide]
– | – | 670 | 380 | CNc1cc(Nc2ccnn(-c3ccccc3)c2=O)nn2c(C(=O)NC3CCC3)cnc12 [Example 8, N-Cyclobutyl-8-(methylamino)-6-((3-oxo-2-phenyl-2,3-dihydropyridazin-4-yl)amino)imidazo[1,2-b]pyridazine-3-carboxamide]
– | – | 120 | 40 | CNc1cc(Nc2cccn(C)c2=O)nn2c(C(=O)NCC(C)(C)CO)cnc12 [Example 9, N-(3-Hydroxy-2,2-dimethylpropyl)-6-((1-methyl-2-oxo-1,2-dihydropyridin-3-yl)amino)-8-(methylamino)imidazo[1,2-b]pyridazine-3-carboxamide]
150 | 120 | – | – | CNc1cc(Nc2cccn(-c3ccc(F)cc3)c2=O)nn2c(C(=O)NC3CC3)cnc12 [Example 10]
310 | 260 | – | – | CNc1cc(Nc2cc(F)cn(C)c2=O)nn2c(C(=O)NC3(C#N)CC3)cnc12 [Example 11]
170 | 100 | – | – | CNc1cc(Nc2cccn(-c3ccc(F)cc3)c2=O)nn2c(C(=O)NC3(C#N)CC3)cnc12 [Example 12]
150 | 230 | – | – | CNc1cc(Nc2cccn(-c3ccc(C#N)cc3)c2=O)nn2c(C(=O)NC3(C#N)CC3)cnc12 [Example 13]
570 | 460 | – | – | CNc1cc(Nc2cccn(-c3ccc(F)cc3)c2=O)nn2c(C(=O)NCC(C)(CO)CO)cnc12 [Example 14]
190 | 270 | – | – | CNc1cc(Nc2cc(F)cn(CC3CC3)c2=O)nn2c(C(=O)NC3CC3)cnc12 [Example 15]
400 | 360 | – | – | CNc1cc(Nc2cc(F)cn(CC3CC3)c2=O)nn2c(C(=O)NC3(C#N)CC3)cnc12 [Example 16]

IC50 [1, 3] [nM] | IC50 [2, 4] [nM] | IC50 [1, 5] [nM] | IC50 [2, 6] [nM] | Structure (SMILES)
240 | 180 | – | – | CNc1cc(Nc2cccn(-c3ccc(F)nc3)c2=O)nn2c(C(=O)NC3CC3)cnc12 [Example 17]
480 | 150 | – | – | CNc1cc(Nc2cccn(-c3ccc(C(F)F)cc3)c2=O)nn2c(C(=O)NC3CC3)cnc12 [Example 18]
330 | 400 | – | – | CNc1cc(Nc2cccn(-c3ccc(C(F)F)cc3)c2=O)nn2c(C(=O)NCC(C)(CO)CO)cnc12 [Example 19]
130 | 80 | – | – | CNc1cc(Nc2cccn(-c3ccc(C(F)F)cc3)c2=O)nn2c(C(=O)NC3(C#N)CC3)cnc12 [Example 20]
610 | 110 | – | – | CNc1cc(Nc2cc(F)cn(CCF)c2=O)nn2c(C(=O)NC3CC3)cnc12 [Example 21]
150 | 50 | – | – | CNc1cc(Nc2cc(Cl)cn(C)c2=O)nn2c(C(=O)NC3CC3)cnc12 [Example 22]
70 | 20 | – | – | CNc1cc(Nc2cc(Cl)cn(C)c2=O)nn2c(C(=O)NC3(C#N)CC3)cnc12 [Example 23]
150 | 40 | – | – | CNc1cc(Nc2cc(F)cn(C)c2=O)nn2c(C(=O)NCC(C)(C)CO)cnc12 [Example 24]
270 | 110 | – | – | CNc1cc(Nc2cccn(-c3ccc(C(C)(C)O)cc3)c2=O)nn2c(C(=O)NC3CC3)cnc12 [Example 26]
660 | 450 | – | – | CNc1cc(Nc2cccn(-c3ccc(C(C)(C)O)cc3)c2=O)nn2c(C(=O)NC3(C#N)CC3)cnc12 [Example 27]
600 | 300 | – | – | CNc1cc(Nc2cccn(-c3ccc(F)nc3)c2=O)nn2c(C(=O)NC3(C#N)CC3)cnc12 [Example 28]
340 | 200 | – | – | CNc1cc(Nc2cccn(-c3ccc(F)cc3)c2=O)nn2c(C(=O)NCC3(CO)CC3)cnc12 [Example 29]
390 | 200 | – | – | CNc1cc(Nc2cc(F)cn(C)c2=O)nn2c(C(=O)NCC3(CO)CC3)cnc12 [Example 30]
280 | 260 | – | – | CNc1cc(Nc2cccn(-c3ccc(F)cn3)c2=O)nn2c(C(=O)NCC(C)(C)CO)cnc12 [Example 33]
60 | 50 | – | – | CNc1cc(Nc2cccn(-c3ccccn3)c2=O)nn2c(C(=O)NC3CCC3)cnc12 [Example 34]
100 | 100 | – | – | CNc1cc(Nc2cccn(-c3ccc(F)cn3)c2=O)nn2c(C(=O)NC3CC3)cnc12 [Example 36]
20 | 30 | – | – | CNc1cc(Nc2cccn(-c3ccc(F)cn3)c2=O)nn2c(C(=O)N[C@@H]3C[C@@H]3F)cnc12 [Example 37]
160 | 50 | – | – | CNc1cc(Nc2cccn(-c3ccc(F)nc3)c2=O)nn2c(C(=O)N[C@@H]3C[C@@H]3F)cnc12 [Example 40]
80 | 60 | – | – | CNc1cc(Nc2cccn(-c3ncccc3F)c2=O)nn2c(C(=O)NC3CC3)cnc12 [Example 41]
